# Measured values published in patent US20190315814A1, “LANTIBIOTIC VARIANTS AND USES THEREOF” (priority 2016, published 2019).
# Read-outs that look alike come from different tables or passages of the source. Marks after values point to notes of the source that are not given here.
# Assays:
# [1] = system: Streptococcus pneumoniae (ATCC 700675); experiment: MIC assay against Streptococcus pneumoniae; assay type: cell-based; settings: ATCC700675, read-out: MIC S. pneumonia
# [2] = system: Staphylococcus aureus; experiment: MIC assay against Staphylococcus aureus; assay type: cell-based
# [3] = system: Pseudomonas aerigunosa; experiment: MIC against Gram negative P. aeruginosa; assay type: cell-based, Pseudomonas aeruginosa
# Protocol: A minimum inhibitory concentration (MIC) assessment against Pseudomonas aerigunosa (a Gram negative bacterium) was performed for single site variants in the broth dilution assay as described by the CLSI (CLSI document M07-A8). Samples and Ofloxacin control were dissolved and serially diluted in 100% DMSO and 4 μL was added per well to 96-well plate with 196 μL of Cation Adjusted Mueller Hinton II Broth seeded with P. aeruginosa. […] The assay plates were loosely wrapped in a plastic bag and incubated 20-24 hours at 36° C. (aerobic conditions) and then visually examined and scored positive (+) for inhibition of growth or turbidity or negative (−) for no effect upon growth or turbidity.
# [4] = system: VRE Enterococcus faecium; experiment: organism not typed; settings: read-out: MIC VRE ATCC 700221, strain ATCC 700221
# [5] = system: Eggerthella lenta (ATCC 27337); experiment: microbe, parasite or virus in culture; settings: ATCC27337, read-out: MIC E. lenta
# [6] = system: VRE Enterococcus faecalis; experiment: organism not typed
# [7] = system: VRE Enterococcus faecalis
# [8] = system: Clostridium scindens (ATCC 35704)
# [9] = system: Eggerthella lenta (ATCC 27337)
# [10] = simulated gi fluid
# [11] = in vitro; settings: simulated gi fluid
# [12] = system: Heliobacter pylori
# [13] = system: Clostridium difficile UNT103-1; experiment: Second non-cannulated Syrian hamster C. difficile infection model, oral gavage dose range-finding; assay type: in vivo, Golden Syrian hamsters
# Protocol: (§1) Following the recovery phase, male Golden Syrian hamsters were inoculated with Clostridium difficile UNT103-1 (VA11, non epidemic (cdtB-, REA group J) Curtis Donskey, Cleveland VA Hospital, Cleveland, Ohio). On Day 1, at 24 hrs after infection, all animals received a single subcutaneous injection of clindamycin (10 mg/kg). Test article formulated at 3 to 5 different doses were administered three times per day (TID), starting on Day 2 at 18 hours after Clindamycin injection, for 5 consecutive days (Days 2 through 6), and followed until Day 22 to assess recurrence. Vancomycin (positive control) was administered once a day at 20 mg/kg on Days 2 through 6. Cecal spore counts and Toxins A and B were determined as described above.
# [14] = system: Lactobacillus acidophilus (CCUG 4356)
# [15] = system: Clostridium difficile UNT103-1; experiment: Non-cannulated Syrian hamster C. difficile infection model, oral gavage; assay type: in vivo, Golden Syrian hamsters
# Protocol: as §1, with “formulations” for “formulated at 3 to 5 different doses”, “above” for “above.”
# [16] = system: VRE Enterococcus faecium
# [17] = system: Peptostreptococcus anaerobius (ATCC 27337)
# [18] = 35 mg/Kg oral gavage TID, limit of detection 0.8
compound,measurement,setting,value
CC1(C)S[C@@H]2[C@H](NC(=O)[C@H](N)c3ccccc3)C(=O)N2[C@H]1C(=O)O [Ampicillin],MIC,[1],1 µg/mL
Gentamicin,MIC S. aureus ATCC 19636,[2]; strain ATCC 19636,0.125 µg/mL
same,MIC S. aureus ATCC 29213,[2]; strain ATCC 29213,0.25 µg/mL
same,MIC SS. aureus ATCC 33591,[2]; strain ATCC 33591,1 µg/mL
same,MIC S. aureus BAA-1717,[2]; strain BAA-1717,0.25 µg/mL
CC1COc2c(N3CCN(C)CC3)c(F)cc3c(=O)c(C(=O)O)cn1c23 (stereo not drawn) [Ofloxacin],MIC,[3],1 µg/mL
"CC(=O)NC[C@H]1CN(c2ccc(N3CCOCC3)c(F)c2)C(=O)O1 [Linezoid, Linezolid]",MIC,[4]; multi-site variants,4 µg/mL
same,MIC,[4]; single site variants,2 µg/mL
same,MIC,[5],1 µg/mL
same,MIC,[6]; read-out: MIC VRE ATCC 51299,2 µg/mL
same,MIC,[6]; read-out: MIC VRE ATCC 51575,2 µg/mL
same,MIC,[6]; read-out: MIC VRE CCUG 47775,2 µg/mL
same,MIC VRE ATCC 51575,"[7]; strain ATCC 51575, multi-site variants",2 µg/mL
C=C1NC(=O)[C@H](Cc2c[nH]c3ccccc23)NC(=O)[C@H](NC(=O)[C@H](CCCCN)NC(=O)[C@@H](N)C(C)C)CSC[C@@H](C(=O)N[C@H]2C(=O)N3CCC[C@H]3C(=O)NCC(=O)N[C@H](C(=O)N[C@@H](C)C(=O)N[C@@H](CC(N)=O)C(=O)N/C(=C\C)C(=O)NCC(=O)N[C@@H]3CSC[C@@H]4NC(=O)[C@H](Cc5ccc(O)cc5)NC(=O)[C@@H](CS/C=C\NC4=O)NC(=O)[C@H](CC(N)=O)NC(=O)[C@H](Cc4ccccc4)NC3=O)CS[C@H]2C)NC(=O)[C@H](CC(C)C)NC1=O [F1V R13N],MIC C. scindens,[8],4 µg/mL
same,MIC E. lenta,[9],0.5 µg/mL
same,half-life,[10]; FaSSIF + 1% pancreatin + 3 μg/ml trypsin + 3 μg/ml chymotrypsin half-life,> 12 h
same,half-life,[10]; FaSSIF only half-life,> 12 h
same,half-life,[11],> 24 h
same,MIC to H. Pylori without EDTA,[12],8 µg/mL
same,MIC to H. Pylori with 0.05M EDTA,[12]; with 0.05M EDTA,8 µg/mL
same,Mean LOG10 CFU/mL of feces homogenates (cecal spore counts) at Day-22,[13]; 2 mg/Kg oral gavage TID,6.13 LOG10 CFU/mL
same,Toxin A level at Day-22,[13]; 2 mg/Kg oral gavage TID,578.5 ng/mL
same,Toxin B level at Day-22,[13]; 2 mg/Kg oral gavage TID,462.7 ng/mL
same,Percent Survival at Day-22,[13]; 2 mg/Kg oral gavage TID Days 2-6,0%
same,Mean LOG10 CFU/mL of feces homogenates (cecal spore counts) at Day-22,[13]; 6 mg/Kg oral gavage TID,4.27 LOG10 CFU/mL
same,Toxin A level at Day-22,[13]; 6 mg/Kg oral gavage TID,266.2 ng/mL
same,Toxin B level at Day-22,[13]; 6 mg/Kg oral gavage TID,238.1 ng/mL
same,Percent Survival at Day-22,[13]; 6 mg/Kg oral gavage TID Days 2-6,50%
same,Mean LOG10 CFU/mL of feces homogenates (cecal spore counts) at Day-22,[13]; 20 mg/Kg oral gavage TID,3.88 LOG10 CFU/mL
same,Toxin A level at Day-22,[13]; 20 mg/Kg oral gavage TID,74.2 ng/mL
same,Toxin B level at Day-22,[13]; 20 mg/Kg oral gavage TID,57.8 ng/mL
same,Percent Survival at Day-22,[13]; 20 mg/Kg oral gavage TID Days 2-6,66%
same,Percent Survival at Day-22,[13]; 35 mg/Kg oral gavage TID Days 2-6,100%
same,Toxin A level at Day-22,[13]; [18],0.8/0.8** ng/mL
same,Toxin B level at Day-22,[13]; [18],0.8/0.8** ng/mL
same,Mean LOG10 CFU/mL of feces homogenates (cecal spore counts) at Day-22,"[13]; 35 mg/Kg oral gavage TID, limit of detection 2.40",2.40* LOG10 CFU/mL
same,Mean LOG10 CFU/mL of feces homogenates (cecal spore counts) at Day-22,[13]; 60 mg/Kg oral gavage TID,2.51 LOG10 CFU/mL
same,Toxin A level at Day-22,[13]; 60 mg/Kg oral gavage TID,7.3 ng/mL
same,Toxin B level at Day-22,[13]; 60 mg/Kg oral gavage TID,5.5 ng/mL
same,Percent Survival at Day-22,[13]; 60 mg/Kg oral gavage TID Days 2-6,83%
same,Efficacy compared with Vancomycin-treated animals at the same dose,"[13]; end of the study at Day 21, ascending dose regimen, in words",superior efficacy
same,MIC L. acidophilus,[14],0.5 µg/mL
same,Efficacy compared with Vancomycin-treated animals,"[15]; end of the study at Day 22, oral gavage, in words",equal or superior efficacy
same,Percent Survival at Day-22,"[15]; oral gavage TID Days 2-6, vancomycin 20 mg/kg once a day",100%
same,Toxin A level at Day-22,"[15]; oral gavage, first value of A/B cell, limit of detection 0.8",0.8/0.8** ng/mL
same,Mean LOG10 CFU/mL of feces homogenates (cecal spore counts) at Day-22,"[15]; oral gavage, limit of detection 2.40",2.4* LOG10 CFU/mL
same,Toxin B level at Day-22,"[15]; oral gavage, second value of A/B cell, limit of detection 0.8",0.8/0.8** ng/mL
same,MIC VRE ATCC 700221,[16],16 µg/mL
same,MIC P. anaerobius,[17],0.25 µg/mL
same,MIC VRE ATCC 51575,[7]; VRE,32 µg/mL
same,MIC VRE CCUG 47775,[7]; VRE,32 µg/mL
